Reference: US8846750B2, “Pharmaceutical and food compositions for preventing or treating diabetes or obesity” (Korea Ocean Research and Development Institute, priority 2010, dated 2014)

Key:
PTP-1b = molecular target: T1, PTP-1b (Homo sapiens, UniProt P18031); assay: Selectivity for protein tyrosine phosphatases: PTP-1b; assay type: biochemical; conditions: at a concentration of 0.2 µM (IC50); read-out: inhibition rate against PTP-1b
T1 construct: purchased Bioneer, Korea
T1 sequence (P18031 1-435): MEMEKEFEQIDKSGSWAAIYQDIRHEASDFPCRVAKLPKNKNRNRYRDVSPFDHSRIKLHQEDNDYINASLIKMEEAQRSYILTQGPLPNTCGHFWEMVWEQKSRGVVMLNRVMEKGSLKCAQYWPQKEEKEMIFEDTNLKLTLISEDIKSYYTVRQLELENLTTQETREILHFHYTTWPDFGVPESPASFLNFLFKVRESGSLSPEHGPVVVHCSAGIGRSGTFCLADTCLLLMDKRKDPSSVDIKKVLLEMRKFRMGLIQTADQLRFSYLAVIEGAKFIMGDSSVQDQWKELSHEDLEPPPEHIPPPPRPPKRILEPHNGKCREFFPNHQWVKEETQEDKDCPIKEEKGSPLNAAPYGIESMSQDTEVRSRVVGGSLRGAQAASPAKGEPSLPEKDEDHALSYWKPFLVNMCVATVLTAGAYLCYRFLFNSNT
Protocol: In order to examine the selectivity of sodium lobarate for protein tyrosine phosphatases, the inhibitory activities of sodium lobarate against PTP-1b, PTPN2, PTPN5, PTPN6, PTPN7 and PTPN13 were examined by spectroscopically measuring the activities of the enzymes.
Specifically, to 0.5 mg/Ml of PTP-1b, PTPN2, PTPN5, PTPN6, PTPN7 or PTPN13 (Bioneer, Korea) in protein tyrosine phosphatase buffer (20 mM Tris-Hcl, pH 8.0, 0.75 mM NaCl, 0.5 mM EDTA, 5 mM β-mercaptoethanol, 50% glycerol), 0, 50, 100 or 200 nM sodium lobarate and the substrate [pTyr1146] insulin receptor (1142-1153, Sigma, USA) were added. Then, each of the mixtures was allowed to react at room temperature for 10-30 minutes, and then malachite green-molybdate dye solution (Sigma, USA) was added thereto and reacted at room temperature for 10 minutes. After completion of the reaction with the substrate, the absorbance at 620 nm was measured.
(§1) In order to examine the selectivity of Lobarin for protein tyrosine phosphatases, the inhibitory activities of Lobarin against PTP-1b, PTPN2, PTPN5, PTPN6, PTPN7 and PTPN13 were examined by spectroscopically measuring the activities of the enzymes.
Specifically, to 0.5 mg/Ml of PTP-1b, PTPN2, PTPN5, PTPN6, PTPN7 or PTPN13 (Bioneer, Korea) in protein tyrosine phosphatase buffer (20 mM Tris-Hcl, pH 8.0, 0.75 mM NaCl, 0.5 mM EDTA, 5 mM β-mercaptoethanol, 50% glycerol), 0, 50, 100 or 200 nM Lobarin and the substrate [pTyr1146] insulin receptor (1142-1153, Sigma, USA) were added. […] After completion of the reaction with the substrate, the absorbance at 620 nm was measured.
as §1, with “Lobarstin” for “Lobarin”, “enzymes. […] After completion of the reaction with the substrate, the absorbance at 620 nm was measured.” for “enzymes.”

[1] = test system: db/db mice (type 2 diabetic model animals); assay: Intraperitoneal glucose tolerance test (IPGTT) 28 days after intraperitoneal administration; assay type: in vivo; conditions: 10 mg/kg i.p. for 28 days; for blood glucose level after injection of glucose (IPGTT): fasted 16 hours; for course of blood glucose level in IPGTT: versus control group
Protocol: An intraperitoneal glucose tolerance test (IPGTT) in the animal model of sodium lobarate was performed in the following manner.
To 7-week-old male db/db mice (type 2 diabetic model animals, C57/BLKS/J-db/db, the Korea Research Institute of Bioscience and Biotechnology), physiological saline for a control group and 10 mg/kg of sodium lobarate for a test group was injected, respectively, intraperitoneally every day for 28 days. Then, the animals were fasted for 16 hours without administering physiological saline or sodium lobarate, after which glucose (500 mg/Ml; injection volume of […]) was injected intraperitoneally into the animals. 0, 15, 30, 60, 90 and 120 min after injection of glucose, blood was sampled from the tail vein, and the changes in the blood glucose levels of the samples were measured. […]
(§2) To 7-week-old male db/db mice (type 2 diabetic model animals, C57/BLKS/J-db/db, the Korea Research Institute of Bioscience and Biotechnology), 20% DMSO for a control group and 10 mg/kg of Lobarin for a test group was injected, respectively, intraperitoneally every day for 28 days. Then, the animals were fasted for 16 hours without administering 20% DMSO or Lobarin for each group, after which glucose (500 mg/Ml; injection volume of 200 μl) was injected intraperitoneally into the animals. 0, 15, 30, 60, 90 and 120 min after injection of glucose, blood was sampled from the tail vein, and the changes in the blood glucose levels of the samples were measured.
as §2, with “Lobarstin” for “Lobarin”, “physiological saline and Lobarstin,” for “20% DMSO or Lobarin for each group,”

SMILES	inhibition at 0.2 µM (PTP-1b)	blood glucose level after injection of glucose (IPGTT) ([1]; 0 min)	course of blood glucose level in IPGTT [1]	blood glucose level after injection of glucose (IPGTT) ([1]; 15 min)	blood glucose level after injection of glucose (IPGTT) ([1]; 30 min)	blood glucose level after injection of glucose (IPGTT) ([1]; 60 min)	blood glucose level after injection of glucose (IPGTT) ([1]; 90 min)	blood glucose level after injection of glucose (IPGTT) ([1]; 120 min)
CCCCCc1c(Oc2cc(OC)cc3c2C(=O)OC3(O)CCCC)c(O)cc(O)c1C(=O)O (stereo not drawn) [Lobarin]	52.2%	153 mg/dL	a low increase and a fast decrease in the blood glucose level	358 mg/dL	436 mg/dL	390 mg/dL	335 mg/dL	290 mg/dL
CCCCCc1c2c(cc(O)c1C(=O)[O-])OC(=O)c1c(cc(OC)cc1C(=O)CCCC)O2.[Na+] [sodium lobarate]	50%	153 mg/dL	a low increase and a fast decrease in the blood glucose level	291 mg/dL	361 mg/dL	385 mg/dL	335 mg/dL	290 mg/dL
CCC/C=C1/OC(=O)c2c(Oc3c(O)cc(O)c(C(=O)O)c3CCCCC)cc(OC)cc21 [Lobarstin]	48%	152 mg/dL	a low increase and a fast decrease in the blood glucose level	229 mg/dL	307 mg/dL	205 mg/dL	162 mg/dL	147 mg/dL
